Measured values as given in US11753407B2, “Compounds for treating spinal muscular atrophy” (PTC Therapeutics, Inc., priority 2012, dated 2023).

Assays:
[1] = test system: Smn protein in SMA patient fibroblast cells (GM03813); assay: Smn protein assay in cultured cells (SMN HTRF); assay type: cell-based, human; conditions: SMA patient fibroblast cells, 48 hours; for EC1.5x for Smn protein expression: 7-point concentration curve, SMN HTRF, concentration producing 1.5 times Smn protein vs DMSO vehicle control; for maximum fold (Fold) increase of Smn protein: 7-point concentration data, fold relative to vehicle control
Summary of the method: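 Patient-derived SMA fibroblasts are plated, given compound for 48 h, then lysed in RIPA buffer with protease inhibitors. Lysate Smn is detected by an anti-SMN d2/kryptate HTRF pair incubated overnight. The normalized ΔF is divided by the vehicle ΔF to give fold change, from which EC1.5× and maximum fold are taken.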

[2] = test system: SMN2 minigene mRNA (SMN2-A minigene) in HEK293H cells; assay: SMN2 minigene mRNA splicing RT-qPCR assay in cultured cells; assay type: cell-based, human; conditions: Homo sapiens, HEK293-H; concentration increasing full length SMN2 mRNA 1.5-fold relative to vehicle-treated cells; HEK293H cells with SMN2-A minigene, 24 hours, 7-point concentration data; read-out: EC1.5x for production of full length SMN2 mRNA
Summary of the method: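 Cells are seeded, left to attach 4-6 h, then dosed with test compound across seven concentrations and incubated 24 h. Lysates undergo RT-qPCR with primers/probe specific to the exon 7-containing minigene transcript, co-amplified with GAPDH. Fold change over vehicle is calculated, and EC1.5× marks the 1.5-fold point.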

SMILES	melting point	EC1.5x for Smn protein expression [1]	maximum fold (Fold) increase of Smn protein [1]	EC (1.5-fold increase) [2]
Cn1cc2cc(-c3cc(=O)n4cc(N5CCNCC5)ccc4n3)ccc2n1 [Compound 137, 2-(2-methyl-2H-indazol-5-yl)-7-(piperazin-1-yl)-4H-pyrido[1,2-a]pyrimidin-4-one]	175 to 180 °C	*** (an EC1.5× between >0.3 μM and ≤1 μM is indicated by three stars (***))	***** (a fold increase >1.65 is indicated by five stars (*****))	0.1 to 0.3 µM
C[C@H]1CN(c2ccc3nc(-c4ccc5nn(C)cc5c4)cc(=O)n3c2)CCN1 [Compound 138, 2-(2-methyl-2H-indazol-5-yl)-7-[(3S)-3-methylpiperazin-1-yl]-4H-pyrido[1,2-a]pyrimidin-4-one]	166 to 170 °C	*** (an EC1.5× between >0.3 μM and ≤1 μM is indicated by three stars (***))	***** (a fold increase >1.65 is indicated by five stars (*****))	0.1 to 0.3 µM
COc1cc(F)cc(-c2cc(=O)n3cc(N4CCNCC4)ccc3n2)c1 [Compound 139, 2-(3-fluoro-5-methoxyphenyl)-7-(piperazin-1-yl)-4H-pyrido[1,2-a]pyrimidin-4-one]	168 to 170 °C		*** (a fold increase between >1.35 and ≤1.5 is indicated by three stars (***))	1 to 3 µM
COc1cc(F)cc(-c2cc(=O)n3cc(N4CCN[C@@H](C)C4)ccc3n2)c1 [Compound 140, 2-(3-fluoro-5-methoxyphenyl)-7-[(3S)-3-methylpiperazin-1-yl]-4H-pyrido[1,2-a]pyrimidin-4-one]	154 to 156 °C		*** (a fold increase between >1.35 and ≤1.5 is indicated by three stars (***))	1 to 3 µM
Cc1cn2cc(-c3cc(=O)n4cc(N5CCNCC5)ccc4n3)cc(C)c2n1 [Compound 141, 2-(2,8-dimethylimidazo[1,2-a]pyridin-6-yl)-7-(piperazin-1-yl)-4H-pyrido[1,2-a]pyrimidin-4-one]	270 to 274 °C	**** (an EC1.5x≤0.3 μM is indicated by four stars (****))	***** (a fold increase >1.65 is indicated by five stars (*****))	< 0.1 µM
COc1ccc(-c2cc(=O)n3cc(N4CCN[C@@H](C)C4)cc(C)c3n2)cc1OC [Compound 142, 2-(3,4-dimethoxyphenyl)-9-methyl-7-[(3S)-3-methylpiperazin-1-yl]-4H-pyrido[1,2-a]pyrimidin-4-one]	176 to 182 °C		*** (a fold increase between >1.35 and ≤1.5 is indicated by three stars (***))	0.3 to 1 µM
COc1ccc(-c2cc(=O)n3cc(N4CCN(O)CC4)ccc3n2)cc1OC [Compound 146, 2-(3,4-dimethoxyphenyl)-7-(4-hydroxypiperazin-1-yl)-4H-pyrido[1,2-a]pyrimidin-4-one]	202 to 204 °C		* (A maximum fold increase of ≤1.2 is indicated by one star (*))	1 to 3 µM
COc1ccc(-c2cc(=O)n3cc(N4CC[C@H](N(C)C)C4)ccc3n2)cc1OC [Compound 147, 2-(3,4-dimethoxyphenyl)-7-[(3S)-3-(dimethylamino)pyrrolidin-1-yl]-4H-pyrido[1,2-a]pyrimidin-4-one]	156 to 158 °C		* (A maximum fold increase of ≤1.2 is indicated by one star (*))	1 to 3 µM
COc1ccc(-c2cc(=O)n3cc(N4CCC(N(C)C)CC4)ccc3n2)cc1OC [Compound 148, 2-(3,4-dimethoxyphenyl)-7-[4-(dimethylamino)piperidin-1-yl]-4H-pyrido[1,2-a]pyrimidin-4-one]	158 to 161 °C	** (an EC1.5× between >1 μM and ≤3 μM is indicated by two stars (**))	*** (a fold increase between >1.35 and ≤1.5 is indicated by three stars (***))	0.1 to 0.3 µM
COc1ccc(-c2cc(=O)n3cc(N4CCNCC4)ccc3n2)cc1C [Compound 149, 2-(4-methoxy-3-methylphenyl)-7-(piperazin-1-yl)-4H-pyrido[1,2-a]pyrimidin-4-one]	198 to 203 °C		** (a fold increase between >1.2 and ≤1.35 is indicated by two stars (**))	0.3 to 1 µM

Continued, in another order:

melting point	SMILES	EC1.5x for Smn protein expression [1]	maximum fold (Fold) increase of Smn protein [1]	EC (1.5-fold increase) [2]
224 to 231 °C	N#Cc1cccc(-c2cc(=O)n3cc(N4CCNCC4)ccc3n2)c1 [Compound 150, 3-[4-oxo-7-(piperazin-1-yl)-4H-pyrido[1,2-a]pyrimidin-2-yl]benzonitrile]	** (an EC1.5× between >1 μM and ≤3 μM is indicated by two stars (**))	**** (a fold increase between >1.5 and ≤1.65 is indicated by four stars (****))	0.3 to 1 µM
191 to 197 °C	COc1ccc(-c2cc(=O)n3cc(N4CCNCC4)ccc3n2)cc1C#N [Compound 151, 2-methoxy-5-[4-oxo-7-(piperazin-1-yl)-4H-pyrido[1,2-a]pyrimidin-2-yl]benzonitrile]		*** (a fold increase between >1.35 and ≤1.5 is indicated by three stars (***))	0.1 to 0.3 µM
259 to 266 °C	O=c1cc(-c2ccc(O)c(F)c2)nc2ccc(N3CCNCC3)cn12 [Compound 152, 2-(3-fluoro-4-hydroxyphenyl)-7-(piperazin-1-yl)-4H-pyrido[1,2-a]pyrimidin-4-one]	**** (an EC1.5x≤0.3 μM is indicated by four stars (****))	***** (a fold increase >1.65 is indicated by five stars (*****))	0.1 to 0.3 µM
198 to 201 °C	O=c1cc(-c2ccc(OCC(F)(F)F)c(F)c2)nc2ccc(N3CCNCC3)cn12 [Compound 154, 2-[3-fluoro-4-(2,2,2-trifluoroethoxy)phenyl]-7-(piperazin-1-yl)-4H-pyrido[1,2-a]pyrimidin-4-one]		* (A maximum fold increase of ≤1.2 is indicated by one star (*))	1 to 3 µM
178 to 183 °C	Cc1nc2cc(-c3cc(=O)n4cc(N5CCNCC5)ccc4n3)ccc2o1 [Compound 155, 2-(2-methyl-1,3-benzoxazol-5-yl)-7-(piperazin-1-yl)-4H-pyrido[1,2-a]pyrimidin-4-one]		** (a fold increase between >1.2 and ≤1.35 is indicated by two stars (**))	0.1 to 0.3 µM
174 to 176 °C	Cc1ccc(-c2cc(=O)n3cc(N4CCNCC4)ccc3n2)cc1F [Compound 157, 2-(3-fluoro-4-methylphenyl)-7-(piperazin-1-yl)-4H-pyrido[1,2-a]pyrimidin-4-one]		** (a fold increase between >1.2 and ≤1.35 is indicated by two stars (**))	1 to 3 µM
175 to 178 °C	Cc1ccc(-c2cc(=O)n3cc(N4CCN[C@@H](C)C4)ccc3n2)cc1F [Compound 158, 2-(3-fluoro-4-methylphenyl)-7-[(3S)-3-methylpiperazin-1-yl]-4H-pyrido[1,2-a]pyrimidin-4-one]		* (A maximum fold increase of ≤1.2 is indicated by one star (*))	1 to 3 µM
